Earlier results as cited in PMC8161055, “Synthesis and α-Glucosidase Inhibition Activity of 2-[3-(Benzoyl/4-bromobenzoyl)-4-hydroxy-1,1-dioxido-2H-benzo[e][1,2]thiazin-2-yl]-N-arylacetamides: An In Silico and Biochemical Approach” (Molecules, 2021).

Tests used:
aldose-reductase = biological target: aldose-reductase; design: method as in PMID 22036211; settings: cited from earlier work
SARS-CoV-2 = system: SARS-CoV-2; design: method as in PMID 33160024; settings: cited from earlier work

SMILES	IC50 (aldose-reductase)	IC50 (SARS-CoV-2)
O=C(O)C=C1CN(Cc2ccc(Br)cc2F)S(=O)(=O)c2ccccc21 [2-(2-(4-bromo-2-fluorobenzyl)-1,1-dioxido-2H-benzo[e][1,2]thiazin-4(3H)-ylidene)acetic acid]	110 nM	–
O=C(CN1C(C(=O)Nc2ccc(F)c(Cl)c2)=C(O)c2ccc(F)cc2S1(=O)=O)Nc1ccc(C(F)(F)F)cc1 [compound 4]	–	880 nM
